Test results published in paper PMC10354055, “An optimized Nurr1 agonist provides disease-modifying effects in Parkinson’s disease models” (Nature Communications, 2023).
Several values for one entry are separate records, joined by “and”; a condition that tells them apart may be missing. Equal values may be shown once.

Assays:
[1] = target: T1, Nurr1-LBD (Mus musculus, UniProt Q06219); assay: Luciferase reporter assay, Nurr1-LBD, SK-N-BE(2)C cells; type: cell-based; details: for Maximum fold activity / EC50: Nurr1 activation; for Maximum fold activity: Supplementary Table 1; for Nurr1 activation (in words): Nurr1 reporter assays
T1 construct: transfected with pCMV-fNurr1, pGAL-Nurr1(LBD), pGAL-Nor1(LBD) or pGAL-Nur77(LBD) and reporter construct; expressed in transfected cells; host or cells: SK-N-BE(2)C (human neuroblastoma), N27-A (rat dopaminergic), MN9D (murine dopaminergic)
T1 sequence (Q06219 360-595 limits assumed): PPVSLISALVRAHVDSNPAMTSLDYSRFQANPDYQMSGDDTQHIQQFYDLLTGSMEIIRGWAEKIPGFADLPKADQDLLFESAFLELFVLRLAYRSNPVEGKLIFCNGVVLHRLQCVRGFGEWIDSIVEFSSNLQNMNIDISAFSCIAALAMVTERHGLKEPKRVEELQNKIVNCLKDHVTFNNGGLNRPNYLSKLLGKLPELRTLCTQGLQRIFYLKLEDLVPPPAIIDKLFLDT
Source text: Nurr1 transactivity was normalized to β-galactosidase activity.

[2] = target: T2, Nurr1-LBD (Homo sapiens, UniProt P43354); assay: [3H]-CQ radioligand competition binding assay; details: Fig. 1h
T2 sequence (P43354 360-595 limits assumed, species assumed): as the sequence (Q06219 360-595 limits assumed) above
Experimental: Saturation and competition assays were performed as previously described. For saturation assay, 0.2 µM of Nurr1-LBD and 125-10,000 nM of [^3H]-CQ were incubated in binding buffer (20 mM sodium acetate buffer (pH 5.2)) at 4 °C overnight. […] Assay mixtures were applied to GF/B filters (Brandel Inc.) to capture Nurr1-LBD bounded ligands. […] All graphs and IC50 values were generated using the non-linear regression program in GraphPad Prism version 8.0.2.

[3] = target: T2, Nurr1-LBD; assay: TR-FRET competition assay with HCQFluo; type: binding; details: Fig. 1i
Experimental: TR-FRET assay was performed in PPI Terbium (Tb) detection buffer (PerkinElmer) and contained 0.2 µM of Nurr1-LBD, 0.5 µM of fluorescence-labeled hydroxy-CQ (HCQFluo; Proimaging) and serial concentrations of CQ, 4A7C-301 or RA (10^−4–10^6 nM). Rabbit anti-Nurr1 antibody (3 nM; prepared in our lab) and anti-rabbit IgG-Tb (1:400; Cisbio, 61PARTAF) were included in the assay solution as a donor complex. Assay solutions were loaded in a 384-well OptiPlate™ (PerkinElmer). After 2 h incubation in the dark at room temperature, the FRET signal was measured by excitation at 340 nm and emission at 520 nm for fluorescein and 495 nm for Tb using a VICTOR Nivo plate reader (PerkinElmer). Data were fit using the non-linear regression program in GraphPad Prism version 8.0.2.

[4] = Supplementary Table 1, values given in nM
[5] = Supplementary Table 1, values in µM

Row | SMILES | Maximum fold activity [1] | EC50 [1, 4] [nM] | EC50 [1, 5] [nM] | also measured
1 | Clc1ccc2c(NCCN3CCN(c4ccnc(Cl)n4)CC3)ccnc2c1 [4A7C-203] | 4.22 ± 0.16 fold | 17 ± 4.97 | – | –
2 | Cc1cc(NC2CCCC(Nc3ccnc4cc(Cl)ccc34)C2)nc(N2CCCCC2)n1 (centres unmarked) [4A7C-603] | 6.84 ± 0.52 fold | – | 1220 ± 20 | –
3 | Cc1cc(NC2CCCC(Nc3ccnc4cc(Cl)ccc34)C2)nc(Cl)n1 (centres unmarked) [4A7C-601] | 3.81 ± 0.17 fold | 110 ± 27.1 | – | –
4 | Clc1ccc2c(NCCN3CCN(c4nccc(-n5ccnc5)n4)CC3)ccnc2c1 [4A7C-509] | 3.43 ± 0.42 fold | 113 ± 19.2 | – | –
5 | Cc1cc(N2CCN(C)CC2)nc(N(CCNc2ccnc3cc(Cl)ccc23)Cc2cccs2)n1 [4A7C-504] | 4.07 ± 0.53 fold | 431 ± 15.1 | – | –
6 | Cc1cc(N2CCOCC2)nc(N(CCNc2ccnc3cc(Cl)ccc23)Cc2cccs2)n1 [4A7C-503] | 2.25 ± 0.26 fold | 1.07 ± 0.12 | – | –
7 | Cc1cc(N(CCNc2ccnc3cc(Cl)ccc23)Cc2cccs2)nc(N2CCOCC2)n1 [4A7C-506] | 4.49 ± 0.43 fold | 9.83 ± 0.29 | – | –
8 | Cc1cc(N2CCSCC2)nc(NC2CCCC(Nc3ccnc4cc(Cl)ccc34)C2)n1 (centres unmarked) [4A7C-606] | 5.72 ± 0.16 fold | – | 1540 ± 360 | –
9 | Cc1cc(N2CCN(CCNc3ccnc4cc(Cl)ccc34)CC2)nc(N2CCN(C)CC2)n1 [4A7C-201] | 4.78 ± 0.31 fold | 14.6 ± 1.38 | – | –
10 | CCN1CCN(c2cc(N3CCOCC3)nc(NCCNc3ccnc4cc(Cl)ccc34)n2)CC1 [4A7C-305] | 7.60 ± 0.08 fold | – | 1040 | Nurr1 activation (in words) [1]: good Nurr1 activities
11 | CCN1CCN(c2cc(Cl)nc(NCCNc3ccnc4cc(Cl)ccc34)n2)CC1 [4A7C-104] | 2.63 ± 0.58 fold | 316 ± 39.8 | – | Nurr1 activation (in words) [1]: better Nurr1 EC50 than 4A7C-103
12 | Cc1cc(N2CCN(c3ccccc3)CC2)nc(NC2CCCC(Nc3ccnc4cc(Cl)ccc34)C2)n1 (centres unmarked) [4A7C-608] | 6.31 ± 0.82 fold | – | 1140 ± 130 | –
13 | CCN1CCN(c2cc(N3CCCCC3)nc(NCCNc3ccnc4cc(Cl)ccc34)n2)CC1 [4A7C-304] | 2.16 ± 0.03 fold | 9.67 ± 7.87 | – | Nurr1 activation (in words) [1]: good Nurr1 activities
14 | Cc1cc(N2CCCCC2)nc(NC2CCCC(Nc3ccnc4cc(Cl)ccc34)C2)n1 (centres unmarked) [4A7C-609] | 4.83 ± 0.51 fold | – | 1190 ± 610 | –
15 | Cc1cc(N(CCNc2ccnc3cc(Cl)ccc23)Cc2cccs2)nc(Cl)n1 [4A7C-502] | 4.99 ± 0.86 fold | 0.51 ± 0.06 | – | –
16 | Cc1cc(N2CCCC2)nc(NC2CCCC(Nc3ccnc4cc(Cl)ccc34)C2)n1 (centres unmarked) [4A7C-604] | 4.24 ± 0.45 fold | – | 1030 ± 420 | –

Row | SMILES | Maximum fold activity [1] | EC50 [1, 4] [nM] | EC50 [1, 5] [nM] | also measured
17 | CCN1CCN(c2nccc(N3CCN(CCNc4ccnc5cc(Cl)ccc45)CC3)n2)CC1 [4A7C-206] | 10.71 ± 0.44 fold | – | 10000 ± 760 | –
18 | CCN1CCN(c2cc(NCCNc3ccnc4cc(Cl)ccc34)nc(N3CCN(CC)CC3)n2)CC1 [4A7C-303] | 9.50 ± 0.22 fold | 8.5 ± 18.6 | – | Nurr1 activation (in words) [1]: good activity
19 | Clc1ccc2c(NCCN3CCN(c4ccnc(N5CCSCC5)n4)CC3)ccnc2c1 [4A7C-204] | 4.46 ± 0.67 fold | 33.7 ± 0.34 | – | –
20 | CCN1CCN(c2cc(C)nc(N(CCNc3ccnc4cc(Cl)ccc34)Cc3cccs3)n2)CC1 [4A7C-507] | 3.24 ± 0.40 fold | 94.9 ± 1.66 | – | –
21 | CCN1CCN(c2nc(C)cc(NCCCNc3ccnc4cc(Cl)ccc34)n2)CC1 [4A7C-102] | 3.68 ± 0.04 fold and 3.68 fold | 143 | – | –
22 | CCN1CCN(c2cc(N3CCN(C)CC3)nc(NCCNc3ccnc4cc(Cl)ccc34)n2)CC1 [4A7C-306] | 10.01 ± 0.06 fold | 25.5 ± 42.2 | – | Nurr1 activation (in words) [1]: good Nurr1 activities
23 | Cc1cc(N(CCNc2ccnc3cc(Cl)ccc23)Cc2cccs2)nc(N2CCCCC2)n1 [4A7C-505] | 3.65 ± 0.31 fold | 2.14 ± 0.45 | – | –
24 | Cc1cc(N(CCNc2ccnc3cc(Cl)ccc23)Cc2ccc3c(c2)OCO3)nc(N2CCN(C)CC2)n1 [4A7C-501] | 10.51 ± 0.85 fold | – | 3390 ± 260 | –
25 | Cc1cc(N2CCN(CCNc3ccnc4cc(Cl)ccc34)CC2)nc(N2CCCC2)n1 [4A7C-202] | 3.78 ± 0.25 fold | 1.28 ± 0.63 | – | –
26 | Cc1cc(NC2CCCC(Nc3ccnc4cc(Cl)ccc34)C2)nc(N2CCN(c3ccccc3)CC2)n1 (centres unmarked) [4A7C-602] | 3.44 ± 0.28 fold | – | 3860 ± 260 | –
27 | CCN1CCN(c2nc(NCCCCNc3ccnc4cc(Cl)ccc34)c3ccccc3n2)CC1 [4A7C-401] | 3.01 ± 0.13 fold | 2.62 ± 0.96 | – | –
28 | CCN1CCN(c2cc(Cl)nc(NCCCNc3ccnc4cc(Cl)ccc34)n2)CC1 [4A7C-103] | 3.52 ± 0.19 fold | 634.5 ± 1.37 | – | Nurr1 activation (in words) [1]: diminished Nurr1 activity
29 | Cc1cc(NC2CCCC(Nc3ccnc4cc(Cl)ccc34)C2)nc(N2CCOCC2)n1 (centres unmarked) [4A7C-605] | 5.71 ± 0.81 fold | – | 1080 ± 370 | –
30 | Cc1cc(N2CCN(C)CC2)nc(NC2CCCC(Nc3ccnc4cc(Cl)ccc34)C2)n1 (centres unmarked) [4A7C-607] | 4.50 ± 1.59 fold | – | 2230 ± 400 | –
31 | CC1=C(/C=C/C(C)=C/C=C/C(C)=C/C(=O)O)C(C)(C)CCC1 [RA, Retinoic acid] | – | – | – | % of Specific binding ([2]; competitor conc. 0.0001 (µM)): 87.8740% and 90.3786% and 97.0000%; % of Specific binding ([2]; competitor conc. 0.001 (µM)): 101.4488% and 96.8455% and 90.6575%; % of Specific binding ([2]; competitor conc. 0.01 (µM)): 93.0895% and 89.2521% and 94.1409%; % of Specific binding ([2]; competitor conc. 0.1 (µM)): 82.0986% and 95.6235% and 83.0156%; % of Specific binding ([2]; competitor conc. 1 (µM)): 87.3597% and 82.6821% and 79.1883%; % of Specific binding ([2]; competitor conc. 10 (µM)): 63.0000% and 75.1862% and 67.5572%; % of Specific binding ([2]; competitor conc. 100 (µM)): 42.2356% and 49.1037% and 43.9315%; % of Specific binding ([2]; competitor conc. 1000 (µM)): 32.2111% and 35.0331% and 30.1369%; % of Specific binding ([2]; competitor conc. 10000 (µM)): 18.6132% and 23.0315% and 23.7161%; % of Specific binding ([2]; competitor conc. 100000 (µM)): 12.2908% and 10.3348% and 16.3962%; % of Specific binding ([2]; competitor conc. 1000000 (µM)): 8.1147% and 11.0894% and 7.4333%; Interaction [HTRF] ([3]; 0.05 µM): 2835.2000 and 2760.8790 and 2798.0390; Interaction [HTRF] ([3]; 0.1 µM): 2218.7830 and 2060.7720 and 2139.7770; Interaction [HTRF] ([3]; 0.5 µM): 1239.9030 and 1522.7770 and 1381.3400; Interaction [HTRF] ([3]; 1 µM): 1217.7040 and 1012.7510 and 1115.2270; Interaction [HTRF] ([3]; 5 µM): 750.0158 and 977.4576 and 863.7367; Interaction [HTRF] ([3]; 10 µM): 824.6545 and 715.3943 and 770.0244; Interaction [HTRF] ([3]; 50 µM): 734.0843 and 751.1574 and 742.6208; Interaction [HTRF] ([3]; 100 µM): 637.6497 and 793.8474 and 715.7485; Interaction [HTRF] ([3]; 200 µM): 603.5579 and 705.9392 and 654.7485
